Laboratory results from ChEMBL document CHEMBL2163215, “Mitigating hERG Inhibition: Design of Orally Bioavailable CCR5 Antagonists as Potent Inhibitors of R5 HIV-1 Replication” (ACS Med Chem Lett, 2012).
Each block holds one compound with its values, some of them ahead of it. Activity calls are given as the source filed them. The rule behind the calls is not given here.

Key:
[1] = molecular target: C-X-C chemokine receptor type 4 (Homo sapiens) (UniProt P61073); settings: at 5 µM
Description: Antagonist activity at CXCR4 at 5 uM by calcium flux assay

[2] = molecular target: T1, C-C chemokine receptor type 4 (Homo sapiens) (UniProt P51679); settings: at 5 µM
T1 sequence (whole entry): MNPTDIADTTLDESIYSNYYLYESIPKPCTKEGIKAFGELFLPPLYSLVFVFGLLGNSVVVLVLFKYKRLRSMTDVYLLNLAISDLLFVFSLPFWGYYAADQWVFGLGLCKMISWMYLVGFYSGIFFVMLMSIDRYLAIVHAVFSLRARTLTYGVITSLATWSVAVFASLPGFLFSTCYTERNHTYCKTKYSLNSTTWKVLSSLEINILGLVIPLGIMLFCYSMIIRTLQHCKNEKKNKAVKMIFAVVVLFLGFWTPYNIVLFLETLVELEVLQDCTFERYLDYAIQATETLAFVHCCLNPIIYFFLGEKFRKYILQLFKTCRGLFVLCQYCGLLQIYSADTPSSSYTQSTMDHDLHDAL
Description: Antagonist activity at CCR4 at 5 uM by calcium flux assay

[3] = tested on: Human immunodeficiency virus 1; test: Antiviral activity against R5 tropic HIV1 Ba-L infected human PBMC assessed as inhibition of viral replication by p-24 antigen specific ELISA; type: functional, organism-based; settings: Human immunodeficiency virus 1, Ba-L
[4] = molecular target: T2, C-X-C chemokine receptor type 1 (Homo sapiens) (UniProt P25024); settings: at 5 µM
T2 sequence (whole entry): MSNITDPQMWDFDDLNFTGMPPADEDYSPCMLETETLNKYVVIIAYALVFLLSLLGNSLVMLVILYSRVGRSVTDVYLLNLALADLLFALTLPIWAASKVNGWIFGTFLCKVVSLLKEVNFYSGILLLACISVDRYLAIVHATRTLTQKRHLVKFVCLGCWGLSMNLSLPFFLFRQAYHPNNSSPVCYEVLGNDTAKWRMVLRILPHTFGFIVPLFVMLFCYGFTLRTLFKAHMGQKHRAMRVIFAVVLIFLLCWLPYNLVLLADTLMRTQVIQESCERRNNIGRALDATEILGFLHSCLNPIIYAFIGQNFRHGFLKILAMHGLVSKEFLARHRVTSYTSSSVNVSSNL
Description: Antagonist activity at CXCR1 at 5 uM by calcium flux assay

[5] = molecular target: T3, C-C chemokine receptor type 1 (Homo sapiens) (UniProt P32246); settings: at 5 µM
T3 sequence (whole entry): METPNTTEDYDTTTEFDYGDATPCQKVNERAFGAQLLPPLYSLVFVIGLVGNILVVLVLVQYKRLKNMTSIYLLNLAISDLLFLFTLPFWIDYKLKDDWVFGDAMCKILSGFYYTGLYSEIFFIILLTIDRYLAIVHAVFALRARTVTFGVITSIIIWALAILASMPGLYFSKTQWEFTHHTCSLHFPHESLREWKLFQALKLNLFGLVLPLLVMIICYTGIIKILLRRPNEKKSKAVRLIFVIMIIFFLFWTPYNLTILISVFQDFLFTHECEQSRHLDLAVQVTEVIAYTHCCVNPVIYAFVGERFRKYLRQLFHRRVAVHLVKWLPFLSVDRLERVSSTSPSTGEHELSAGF
Description: Antagonist activity at CCR1 at 5 uM by calcium flux assay

[6] = molecular target: C-C chemokine receptor type 2 (Homo sapiens) (UniProt P41597); settings: at 5 µM
Description: Antagonist activity at CCR2b at 5 uM by calcium flux assay

[7] = molecular target: T4, C-X-C chemokine receptor type 2 (Homo sapiens) (UniProt P25025); settings: at 5 µM
T4 sequence (whole entry): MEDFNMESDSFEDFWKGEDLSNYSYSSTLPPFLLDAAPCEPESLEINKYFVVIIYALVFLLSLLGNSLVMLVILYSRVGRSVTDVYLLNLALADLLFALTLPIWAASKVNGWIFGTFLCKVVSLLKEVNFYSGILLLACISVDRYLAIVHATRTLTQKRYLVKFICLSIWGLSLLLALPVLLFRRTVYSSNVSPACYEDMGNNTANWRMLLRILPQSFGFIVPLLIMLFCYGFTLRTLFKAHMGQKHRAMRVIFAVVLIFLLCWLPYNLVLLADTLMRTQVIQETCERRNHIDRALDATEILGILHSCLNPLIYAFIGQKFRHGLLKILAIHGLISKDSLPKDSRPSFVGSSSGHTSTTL
Description: Antagonist activity at CXCR2 at 5 uM by calcium flux assay

in vivo [8] = settings: dog, plasma
in vivo [9] = settings: dog, po, 12.5 umol/kg
Description: Oral bioavailability in dog at 12.5 umol/kg

in vivo [10] = settings: dog, po
[11] = Volume of distribution in dog at 5 umol/kg, iv; settings: in vivo
[12] = (§1) Fraction unbound in human plasma after 5 hrs
[13] = Cytotoxicity against human PBMC
[14] = Clearance in dog at 5 umol/kg, iv; settings: in vivo
hERG (KCNH2) = hERG (KCNH2) (Homo sapiens, UniProt Q12809); test: Inhibition of human recombinant hERG expressed in CHO cells at 10 uM by automated patch clamp assay; settings: CHO cells expressing human recombinant hERG
Plasma = test: as §1; settings: 5 h
[15] = Cardiotoxicity in dog purkinje fiber assessed as change in resting membrane potential at 10 uM measured at basic cycle length of 1 second
[16] = Cardiotoxicity in dog purkinje fiber assessed as change in action potential duration at 60% at 10 uM measured at basic cycle length of 1 second
[17] = Cardiotoxicity in dog purkinje fiber assessed as change in action potential amplitude at 10 uM measured at basic cycle length of 0.5 seconds
[18] = Cardiotoxicity in dog purkinje fiber assessed as change in resting membrane potential at 10 uM measured at basic cycle length of 0.5 seconds
[19] = Cardiotoxicity in dog purkinje fiber assessed as change in action potential amplitude at 10 uM measured at basic cycle length of 1 second
[20] = Cardiotoxicity in dog purkinje fiber assessed as change in action potential duration at 90% at 10 uM measured at basic cycle length of 0.5 seconds
[21] = Cardiotoxicity in dog purkinje fiber assessed as change in action potential duration at 90% at 10 uM measured at basic cycle length of 2 seconds
[22] = Cardiotoxicity in dog purkinje fiber assessed as change in action potential amplitude at 10 uM measured at basic cycle length of 2 seconds
[23] = Cardiotoxicity in dog purkinje fiber assessed as change in action potential duration at 60% at 10 uM measured at basic cycle length of 0.5 seconds
[24] = Cardiotoxicity in dog purkinje fiber assessed as change in action potential duration at 60% at 10 uM measured at basic cycle length of 2 seconds
[25] = Toxicity in rat administered for 7 days; settings: in vivo
[26] = Cardiotoxicity in dog purkinje fiber assessed as change in resting membrane potential at 10 uM measured at basic cycle length of 2 seconds
[27] = Cardiotoxicity in dog purkinje fiber assessed as change in action potential duration at 90% at 10 uM measured at basic cycle length of 1 second
[28] = Half life in dog at 5 umol/kg, iv; settings: in vivo
[29] = molecular target: Voltage-gated inwardly rectifying potassium channel KCNH2 (Homo sapiens, UniProt Q12809); test: Inhibition of human recombinant hERG expressed in CHO cells by automated patch clamp assay
Voltage-gated inwardly rectifying potassium channel KCNH2, sequence (Q12809 whole entry): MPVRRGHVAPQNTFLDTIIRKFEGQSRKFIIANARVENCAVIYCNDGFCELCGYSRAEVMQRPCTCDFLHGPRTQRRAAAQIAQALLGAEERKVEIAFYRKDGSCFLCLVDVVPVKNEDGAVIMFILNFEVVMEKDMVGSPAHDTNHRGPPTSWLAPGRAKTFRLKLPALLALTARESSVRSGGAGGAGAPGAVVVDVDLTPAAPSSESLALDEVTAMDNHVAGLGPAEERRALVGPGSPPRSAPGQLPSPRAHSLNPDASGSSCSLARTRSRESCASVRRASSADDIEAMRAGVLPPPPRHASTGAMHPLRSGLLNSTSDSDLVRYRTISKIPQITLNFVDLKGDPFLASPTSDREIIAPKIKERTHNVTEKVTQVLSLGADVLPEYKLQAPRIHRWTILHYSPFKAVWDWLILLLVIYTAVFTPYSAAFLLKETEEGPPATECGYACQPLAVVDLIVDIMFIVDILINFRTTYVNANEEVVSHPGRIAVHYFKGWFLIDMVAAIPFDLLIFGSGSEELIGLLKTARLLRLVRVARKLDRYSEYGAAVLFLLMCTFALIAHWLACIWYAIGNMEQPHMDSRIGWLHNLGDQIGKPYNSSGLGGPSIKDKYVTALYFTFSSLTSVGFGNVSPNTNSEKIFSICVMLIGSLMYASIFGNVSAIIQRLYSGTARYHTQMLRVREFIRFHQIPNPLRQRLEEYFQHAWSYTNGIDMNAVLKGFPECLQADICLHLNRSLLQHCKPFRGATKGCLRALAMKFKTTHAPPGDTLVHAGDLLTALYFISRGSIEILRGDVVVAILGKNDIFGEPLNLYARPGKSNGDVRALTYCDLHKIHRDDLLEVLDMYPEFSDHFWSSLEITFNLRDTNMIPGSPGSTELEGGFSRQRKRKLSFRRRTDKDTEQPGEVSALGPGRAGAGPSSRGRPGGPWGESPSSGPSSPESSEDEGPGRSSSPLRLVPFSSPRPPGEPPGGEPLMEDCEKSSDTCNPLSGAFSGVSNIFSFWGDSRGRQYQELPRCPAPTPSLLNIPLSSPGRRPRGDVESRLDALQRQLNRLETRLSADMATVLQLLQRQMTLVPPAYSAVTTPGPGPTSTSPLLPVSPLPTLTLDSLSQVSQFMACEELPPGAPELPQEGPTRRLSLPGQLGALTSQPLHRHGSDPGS

C-X-C chemokine receptor type 4 (Homo sapiens), sequence (P61073 whole entry): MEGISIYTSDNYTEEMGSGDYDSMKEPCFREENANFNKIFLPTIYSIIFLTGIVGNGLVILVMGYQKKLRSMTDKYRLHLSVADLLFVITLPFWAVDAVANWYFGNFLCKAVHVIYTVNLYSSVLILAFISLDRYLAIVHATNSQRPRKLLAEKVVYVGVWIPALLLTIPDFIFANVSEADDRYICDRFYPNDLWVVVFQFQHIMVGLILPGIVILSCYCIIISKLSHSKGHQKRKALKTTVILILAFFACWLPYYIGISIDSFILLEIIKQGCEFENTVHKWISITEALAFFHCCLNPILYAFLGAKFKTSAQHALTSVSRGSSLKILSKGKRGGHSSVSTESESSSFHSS
C-C chemokine receptor type 2 (Homo sapiens), sequence (P41597 whole entry, looked up): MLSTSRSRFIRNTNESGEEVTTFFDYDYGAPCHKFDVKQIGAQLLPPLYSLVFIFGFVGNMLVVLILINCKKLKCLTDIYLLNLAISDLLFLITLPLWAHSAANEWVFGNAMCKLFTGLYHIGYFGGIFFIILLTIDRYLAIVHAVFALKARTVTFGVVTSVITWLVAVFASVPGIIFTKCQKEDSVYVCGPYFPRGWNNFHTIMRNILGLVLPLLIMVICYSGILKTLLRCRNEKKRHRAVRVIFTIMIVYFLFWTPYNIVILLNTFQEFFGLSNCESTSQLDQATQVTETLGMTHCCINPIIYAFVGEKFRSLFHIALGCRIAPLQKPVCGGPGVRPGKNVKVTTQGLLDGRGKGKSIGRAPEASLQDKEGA
hERG (KCNH2), sequence (Q12809 whole entry): as the sequence (Q12809 whole entry) above

inhibition [1]: inactive | inhibition [2]: inactive | IC50 [3]: 0.0148 µM | inhibition [4]: inactive | inhibition [5]: inactive | inhibition [6]: inactive | inhibition [7]: inactive
SMILES: CONC(=O)N(Cc1ccsc1)C1CCN([C@H](C)CCNC(=O)c2c(C)cc(Cl)nc2C)CC1

inhibition [1]: inactive | inhibition [2]: inactive | IC50 [3]: 0.038 µM | inhibition [4]: inactive | inhibition [5]: inactive | inhibition [6]: inactive | inhibition [7]: inactive
SMILES: COCC(=O)N(Cc1ccsc1)C1CCN([C@H](C)CCNC(=O)c2c(C)cc(Cl)nc2C)CC1

IC50 [3]: 0.138 µM
SMILES: CC(=O)N(Cc1ccsc1)C1CCN([C@H](C)CCNC(=O)c2c(C)cc(Cl)nc2C)CC1

IC50 [3]: 0.344 µM | fraction unbound at 5 h [12]: 0.4
SMILES: Cc1cc(Cl)nc(C)c1C(=O)NCC[C@@H](C)N1CCC(N(Cc2ccsc2)C(=O)NO)CC1
inhibition at 10 µM (hERG (KCNH2)): 44% | CC50 [13]: > 38.5 µM

inhibition [1]: inactive | inhibition [2]: inactive | IC50 [3]: 0.0213 µM | inhibition [4]: inactive | fraction unbound at 5 h [12]: 0.43 | inhibition [5]: inactive | inhibition [6]: inactive | inhibition [7]: inactive
SMILES: COCCONC(=O)N(Cc1ccsc1)C1CCN([C@H](C)CCNC(=O)c2c(C)cc(Cl)nc2C)CC1
Activity [15]: -2.8 mV | Activity [16]: 18.1% | Activity [17]: 1.2 mV | Activity [18]: -3.6 mV | Activity [19]: 1.3 mV | Activity [20]: 10.5% | Activity [21]: 22.6% | Activity [22]: 2.4 mV | Activity [23]: 12.2% | Activity [24]: 24.2% | NOAEL at 168 h [25]: ≥ 400 mg/kg | Activity [26]: -2.7 mV | Activity [27]: 16.5% | CC50 [13]: > 34.4 µM

IC50 [3]: 0.0155 µM | fraction unbound at 5 h [12]: 0.46
SMILES: CNC(=O)N(Cc1ccsc1)C1CCN([C@H](C)CCNC(=O)c2c(C)cc(Cl)nc2C)CC1
IC50 [29]: 1.6 µM | inhibition at 10 µM (hERG (KCNH2)): 73% | CC50 [13]: > 40.6 µM

The remaining lines, values behind:

SMILES: CONC(=O)N(Cc1ccsc1)C1CCN([C@H](C)CCNC(=O)c2c(C)cc(C(=O)NC(C)C)nc2C)CC1
inhibition [1]: inactive | inhibition [2]: inactive | IC50 [3]: 0.0048 µM | inhibition [4]: inactive | inhibition [5]: inactive | inhibition [6]: inactive | inhibition [7]: inactive

SMILES: CONC(=O)N(Cc1ccsc1)C1CCN([C@H](C)CCNC(=O)c2c(C)cc(C#N)nc2Cl)CC1
AUC(0-inf) (in vivo [8]): 3.24 µM·h | bioavailability (in vivo [9]): 60% | Cmax (in vivo [10]): 1940 nM | Vd [11]: 6.3 L/kg | IC50 [3]: 0.0029 µM | fraction unbound at 5 h [12]: 0.75 | CC50 [13]: > 38.5 µM | clearance [14]: 39.2 mL/min/kg

SMILES: COc1ccc(N(Cc2cnccc2C)C2CCN([C@H](C)CCNC(=O)c3c(C)ncnc3C)CC2)cc1
IC50 [3]: 1.83 µM | inhibition at 10 µM (hERG (KCNH2)): 58% | Fu (Plasma): 83% | CC50 [13]: > 38.3 µM

SMILES: Cc1cc(C#N)nc(C)c1C(=O)NCC[C@@H](C)N1CCC(N(Cc2ccsc2)C(=O)CC2CCOCC2)CC1
IC50 [3]: 0.0161 µM | inhibition at 10 µM (hERG (KCNH2)): 61% | fraction unbound at 5 h [12]: 0.85 | CC50 [13]: > 36.2 µM

SMILES: COc1ccc(N(Cc2ccsc2)C2CCN([C@H](C)CCNC(=O)c3c(C)ncnc3C)CC2)cc1
IC50 [3]: 0.0659 µM | inhibition at 10 µM (hERG (KCNH2)): 97% | fraction unbound at 5 h [12]: 0.91 | CC50 [13]: > 38.7 µM

SMILES: CONC(=O)N(Cc1ccsc1)C1CCN([C@H](C)CCNC(=O)c2c(C)cc(Cl)[n+]([O-])c2Cl)CC1
AUC(0-inf) (in vivo [8]): 0.37 µM·h | bioavailability (in vivo [9]): 7% | Cmax (in vivo [10]): 260 nM | Vd [11]: 2.6 L/kg | IC50 [3]: 0.0073 µM | inhibition at 10 µM (hERG (KCNH2)): 21% | half-life [28]: 42 min | fraction unbound at 5 h [12]: 0.31 | CC50 [13]: > 38.5 µM | clearance [14]: 40.3 mL/min/kg

SMILES: Cc1cc(Cl)nc(C)c1C(=O)NCC[C@@H](C)N1CCC(N(Cc2ccsc2)C(=O)Nc2cccnc2)CC1
IC50 [3]: 0.0344 µM | inhibition at 10 µM (hERG (KCNH2)): 20% | fraction unbound at 5 h [12]: 0.46 | CC50 [13]: > 32.4 µM

SMILES: Cc1cc(Cl)nc(C)c1C(=O)NCC[C@@H](C)N1CCC(N(Cc2ccsc2)C(=O)CC2CCOCC2)CC1
IC50 [3]: 0.0225 µM | inhibition at 10 µM (hERG (KCNH2)): 67% | fraction unbound at 5 h [12]: 0.8 | CC50 [13]: > 35.6 µM
